Test results: the NIST ThermoML archive (doi:10.1021/je500433d)
Several values for one entry are separate records, joined by “and”; a condition that tells them apart may be missing. Equal entries are not always repeated.

Settings: Liquid, Alternating current cell with electrodes

[Be+2].[Cl-].[Cl-] [beryllium chloride]
Settings	electrical conductivity [S/m]
693.15 K	74.7
695.15 K	80.5
698.65 K	87.7
701.65 K	96.1
705.65 K	107
711.65 K	132
714.65 K	143
719.65 K	165
721.65 K	174
724.65 K	186
726.15 K	193
728.15 K	202
735.65 K	253
738.15 K	270
739.65 K	288
741.65 K	297
744.65 K	327
746.15 K	335
747.15 K	348
750.15 K	376
752.15 K	398
755.15 K	437
759.65 K	454
761.15 K	488
763.15 K	505
765.15 K	531
766.35 K	545
767.35 K	572
770.15 K	610
772.85 K	636
775.15 K	670
777.65 K	707
781.65 K	730
783.65 K	763
786.15 K	824
787.15 K	836
788.15 K	851
790.15 K	887
793.15 K	935
795.15 K	954
795.65 K	966
797.15 K	1010
801.65 K	1090
807.65 K	1160
809.65 K	1180
822.65 K	1390

[Cl][Pb][Cl] [lead(2+) dichloride]
Settings	electrical conductivity [S/m]
783.15 K	150
800.15 K	159
824.15 K	170
854.15 K	185
883.15 K	197
913.15 K	210
943.15 K	221
972.15 K	233
1001.1 K	244
1030.2 K	254
1058.2 K	263
1090.2 K	272
1118.2 K	279
1149.2 K	286
1177.2 K	292
1210.2 K	298
1230.2 K	302
1254.2 K	309
1279.2 K	315
1297.2 K	318
1320.2 K	321

[Cl-].[Cl-].[Zn+2] [zinc chloride]
Settings	electrical conductivity
558.15 K	0.0363 S/m
568.15 K	0.0568 S/m
578.15 K	0.0874 S/m
588.15 K	0.131 S/m
598.15 K	0.179 S/m
618.15 K	0.36 S/m
638.15 K	0.646 S/m
681.15 K	1.86 S/m
717.15 K	3.93 S/m
739.15 K	5.57 S/m
756.65 K	7.13 S/m
814.65 K	14.4 S/m
814.95 K	14.4 S/m
858.65 K	21.9 S/m
879.15 K	26.3 S/m
893.15 K	28.8 S/m
936.15 K	38.8 S/m
970.15 K	47 S/m
974.65 K	48.1 S/m
981.15 K	49.8 S/m
1005.1 K	55.4 S/m
1030.2 K	61.4 S/m
1062.2 K	69.2 S/m
1078.2 K	73.5 S/m and 74.2 S/m
1092.2 K	76.8 S/m
1100.2 K	79.2 S/m
1110.2 K	81.2 S/m
1114.2 K	82.8 S/m
1128.2 K	85.7 S/m
1131.2 K	87.1 S/m
1143.2 K	89 S/m
1144.7 K	90.3 S/m
1163.2 K	93.5 S/m
1167.2 K	95.9 S/m
1183.7 K	100 S/m
1195.7 K	103 S/m
1214.2 K	107 S/m
1225.2 K	110 S/m
1236.2 K	113 S/m
1245.7 K	115 S/m
1259.7 K	118 S/m
1279.7 K	122 S/m
1297.2 K	126 S/m
1306.2 K	127 S/m
1316.7 K	129 S/m
1324.2 K	131 S/m
1341.7 K	134 S/m
1350.2 K	135 S/m
1359.7 K	137 S/m
1376.7 K	139 S/m
1386.7 K	141 S/m
1399.2 K	142 S/m
1406.2 K	143 S/m
1414.2 K	144 S/m
1421.2 K	145 S/m
